Here are results for 16 compounds from article PMC9732823, “Discovery of Dual Aβ/Tau Inhibitors and Evaluation of Their Therapeutic Effect on a Drosophila Model of Alzheimer’s Disease” (ACS Chemical Neuroscience, 2022).

In general, inhibition refers to the share of the control response that was lost under treatment.

Data set [1] has as its target T1, Aβ42 (Homo sapiens, UniProt P05067).
T1 construct: expressed in transfected cells; host or cells: Escherichia coli BL21 (DE3), pET28a
As to the kind of experiment: Inhibition of Aβ42 aggregation in intact E. coli cells overexpressing Aβ42 (ThS fluorescence). The data set is classed as cell-based, Escherichia coli. An excerpt: (§1) As it would have been labor-intensive and expensive to screen such a number of compounds in two separate antiaggregating studies using recombinant Aβ and Tau, we turned our attention to a simple model of protein aggregation, namely, the intact Escherichia coli (E. coli) cells overexpressing Aβ42 and Tau proteins.[28],[29] Building on the fact that inclusion bodies produced by overexpression of these proteins in E. coli mainly consist of fibrillar aggregates, this simple screening method uses bacteria as an in vivo reservoir for tracking the inhibition of amyloid-type protein aggregation in real time, using the amyloid dye thioflavin S (ThS). Of note, this screening has already been used for the evaluation of libraries of antiaggregating compounds.[28]−[38]
Escherichia coli competent cells BL21 (DE3) were transformed with the pET28a vector (Novagen, Inc., Madison, WI) carrying the DNA sequence of Aβ42. Because of the addition of the initiation codon ATG in front of both genes, the overexpressed peptide contains an additional methionine residue at its N terminus. For overnight culture preparation, an amount of 10 mL of M9 minimal medium containing 50 μg·mL^–1 kanamycin was inoculated with a colony of BL21 (DE3) bearing the plasmid to be expressed at 37 °C. For expression of the Aβ42 peptide, the required volume of overnight culture to obtain 1:500 dilution was added into fresh M9 minimal medium containing 50 μg·mL^–1 kanamycin and 250 μM ThS. The bacterial culture was grown at 37 °C and 250 rpm. When the cell density reached ABS600 nm = 0.6, an amount of 980 μL of culture was transferred into Eppendorf tubes of 1.5 mL with 10 μL of each compound to be tested in DMSO and 10 μL of isopropyl 1-thio-β-D-galactopyranoside (IPTG) at 100 mM. The final concentration of the drug was fixed at 10 μM. The samples were grown overnight at 37 °C and 1400 rpm using a thermomixer (Eppendorf, Hamburg, Germany). As the control of the amyloid presence (maximal amyloid presence), the same amount of DMSO without the drug was added to the sample. In parallel, noninduced samples (in the absence of IPTG) were also prepared and used as controls of the non-amyloid presence. In addition, the absorbance at 600 nm of the samples was checked to assess the potential intrinsic toxicity of the compounds and to confirm the correct bacterial growth.
(§2) ThS (T1892) and other chemical reagents were purchased from Sigma (St. Louis, MO). ThS stock solution (25 mM) was prepared in double-distilled water purified through a Milli-Q system (Millipore). For the fluorescence assay, the ThS spectra were measured on an AMINCO-Bowman series 2 luminescence spectrophotometer (Aminco-Bowman AB2, SLM Aminco, Rochester, NY) from 460 to 600 nm at 25 °C using an excitation wavelength of 440 nm and slit widths of 4 nm. The emission at 485 nm (fluorescence peak of ThS in the presence of amyloids) was recorded. To normalize the ThS fluorescence as a function of the bacterial concentration, ABS600nm was obtained using a Shimadzu UV-2401 PC UV–Vis spectrophotometer (Shimadzu, Japan). Note that the fluorescence normalization was carried out considering as 100% the ThS fluorescence of the bacterial cells expressing the peptide or protein in the absence of the drug and 0% the ThS fluorescence of the bacterial cells nonexpressing the peptide or protein.

Data set [2] has as its target T2, Tau protein (Homo sapiens, UniProt P10636).
T2 construct: expressed in transfected cells; host or cells: Escherichia coli BL21 (DE3) with pTARA and pRKT42
The data set is described as follows: Inhibition of Tau aggregation in intact E. coli cells overexpressing Tau (ThS fluorescence). The settings on record: for inhibition at 10 µM: read-out: % inhibition Tau aggregation @ 10 μM, intact E. coli cells, compound 10 μM, mean ± SEM of four independent experiments; for % inhibition Tau aggregation @ 10 μM: intact E. coli cells, compound 10 μM, mean ± SEM of four independent experiments. The data set is classed as cell-based, Escherichia coli.
Text: as §1
E. coli BL21 (DE3) competent cells were transformed with pTARA containing the RNA-polymerase gen of the T7 phage (T7RP) under the control of the promoter PBAD. E. coli BL21 (DE3) with pTARA competent cells were transformed with the pRKT42 vector encoding four repeats of Tau protein in two inserts. For overnight culture preparation, 10 mL of M9 medium containing 0.5% of glucose, 100 μg·mL^–1 ampicillin, and 12.5 μg·mL^–1 chloramphenicol were inoculated with a colony of BL21 (DE3) bearing the plasmids to be expressed at 37 °C. For expression of Tau protein, the required volume of overnight culture to obtain 1:500 dilution was added to fresh M9 minimal medium containing 0.5% of glucose, 50 μg·mL^–1 ampicillin, 12.5 μg·mL^–1 chloramphenicol, and 25 μM ThS. The bacterial culture was grown at 37 °C and 250 rpm. When the cell density reached ABS600 nm= 0.6, an amount of 980 μL of culture was transferred into Eppendorf tubes of 1.5 mL with 10 μL of each compound to be tested in DMSO and 10 μL of arabinose at 25%. The final concentration of the drug was fixed at 10 μM. The samples were grown overnight at 37 °C and 1400 rpm using a thermomixer (Eppendorf, Hamburg, Germany). As the control of maximal amyloid presence, the same amount of DMSO without the drug was added to the sample. In parallel, noninduced samples (in the absence of arabinose) were also prepared and used as controls for the amyloid absence. In addition, the absorbance at 600 nm of the samples was checked to assess the potential intrinsic toxicity of the compounds and to confirm the correct bacterial growth.
as §2

Data set [3] has as its system cerebellar granule neurons (CGNs). As to the kind of experiment: Neurotoxicity on primary cultures of cerebellar granule neurons (nuclei counting after Hoechst staining). The settings on record: differentiated CGNs, 24 h, percentage of healthy nuclei on total nuclei, mean ± SEM of three experiments.
Setting [4] is: read-out: % inhibition Aβ42 aggregation @ 10 μM, intact E. coli cells, compound 10 μM, mean ± SEM of four independent experiments.

Read-outs that look alike come from different tables or passages of the source.

T2 sequence (P10636 1-441 isoform P10636-8): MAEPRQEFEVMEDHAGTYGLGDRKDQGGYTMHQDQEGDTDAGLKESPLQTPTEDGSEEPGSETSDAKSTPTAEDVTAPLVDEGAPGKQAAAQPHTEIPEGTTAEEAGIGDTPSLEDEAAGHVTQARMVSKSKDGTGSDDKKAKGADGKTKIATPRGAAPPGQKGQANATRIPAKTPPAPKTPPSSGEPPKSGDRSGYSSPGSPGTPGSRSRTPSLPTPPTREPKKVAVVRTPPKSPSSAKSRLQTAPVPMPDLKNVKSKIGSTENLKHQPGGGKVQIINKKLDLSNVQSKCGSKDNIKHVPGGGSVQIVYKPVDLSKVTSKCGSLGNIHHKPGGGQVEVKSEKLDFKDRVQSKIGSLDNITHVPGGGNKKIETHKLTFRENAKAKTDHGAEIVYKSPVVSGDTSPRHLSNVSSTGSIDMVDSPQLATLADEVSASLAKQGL
T1 sequence (P05067 672-713 limits assumed): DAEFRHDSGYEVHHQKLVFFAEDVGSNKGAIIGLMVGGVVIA

As to `O=C1NC(=O)/C(=C/c2ccc(/C=C3\SC(=O)NC3=O)cc2)S1` [Compound 1, (5Z,5′Z)-5,5′-(1,4-Phenylenebis(methanylylidene))bis(thiazolidine-2,4-dione)], the inhibition at 10 µM worked out at 25.4 ± 1.9% in data set [1] (setting [4]) and 19.4 ± 3.6% in data set [2]. In data set [3], the “% survival neurotoxicity @ 10 μM” value was 77.6 ± 6.1%.

For the compound `O=C1NC(=O)/C(=C/c2ccc(-c3ccc(/C=C4\SC(=O)NC4=O)cc3)cc2)S1` [Compound 2, (5Z,5′Z)-5,5′-([1,1′-Biphenyl]-4,4′-diylbis(methanylylidene))bis(thiazolidine-2,4-dione)], the inhibition at 10 µM in data set [1] (setting [4]) amounted to 20.2 ± 2.1%; in data set [2], 16.5 ± 3.1%. Further, the “% survival neurotoxicity @ 10 μM” value in data set [3] was found to be 81.3 ± 6.5%.

As to `O=C1NC(=O)/C(=C/c2ccc(Cc3ccc(/C=C4\SC(=O)NC4=O)cc3)cc2)S1` [Compound 3, (5Z,5′Z)-5,5′-((Methylenebis(4,1-phenylene))bis(methanylylidene))bis(thiazolidine-2,4-dione)], the inhibition at 10 µM in data set [1] (setting [4]) is 12.9 ± 3.4%; in data set [2], 5.2 ± 2.7%. In data set [3], the “% survival neurotoxicity @ 10 μM” value was 62.4 ± 9.6%.

As to `O=C1NC(=O)/C(=C/c2ccc3[nH]c4ccc(/C=C5\SC(=O)NC5=O)cc4c3c2)S1` [Compound 4, (5Z,5′Z)-5,5′-((9H-Carbazole-3,6-diyl)bis(methanylylidene))bis(thiazolidine-2,4-dione)], the inhibition at 10 µM in data set [1] (setting [4]) is 24.7 ± 4.1%; in data set [2], 21.2 ± 2.6%. In data set [3], the “% survival neurotoxicity @ 10 μM” value amounted to 73.4 ± 5.1%.

With `CC1(C)c2cc(/C=C3\SC(=O)NC3=O)ccc2-c2ccc(/C=C3\SC(=O)NC3=O)cc21` [Compound 5, (5Z,5′Z)-5,5′-((9,9-Dimethyl-9H-fluorene-2,7-diyl)bis(methanylylidene))bis(thiazolidine-2,4-dione)], the results for the inhibition at 10 µM in data set [1] (setting [4]) and in data set [2] were 23.6 ± 2.6% and 14.8 ± 3%, respectively. Besides, the “% survival neurotoxicity @ 10 μM” value in data set [3] came out at 67.9 ± 5.4%.

As to `O=C1NC(=O)/C(=C/c2ccc(-c3ccc(/C=C4\SC(=O)NC4=O)s3)s2)S1` [Compound 6, (5Z,5′Z)-5,5′-([2,2′-Bithiophene]-5,5′-diylbis(methanylylidene))bis(thiazolidine-2,4-dione)], the inhibition at 10 µM in data set [1] (setting [4]) is 42.4 ± 4.5%; in data set [2], less than 20%. For the same compound, in data set [2] (10 µM), the “% inhibition Tau aggregation @ 10 μM” value is on record as 19.4 ± 3.9%. In data set [3], the “% survival neurotoxicity @ 10 μM” value came out at 89.9 ± 1.2%.

As to `CCOC(=O)CN1C(=O)S/C(=C\c2ccc(-c3ccc(/C=C4\SC(=O)N(CC(=O)OCC)C4=O)cc3)cc2)C1=O` [Compound 8, Diethyl 2,2′-((5Z,5′Z)-([1,1′-biphenyl]-4,4′-diylbis(methanylylidene))bis(2,4-dioxothiazolidin-3-yl-5-ylidene))diacetate], the inhibition at 10 µM came out at 14.3 ± 3.5% in data set [1] (setting [4]) and 18.1 ± 3.2% in data set [2]. The “% survival neurotoxicity @ 10 μM” value in data set [3] is 87.2 ± 3.1%.

Regarding `CCOC(=O)CN1C(=O)S/C(=C\c2ccc(Cc3ccc(/C=C4\SC(=O)N(CC(=O)OCC)C4=O)cc3)cc2)C1=O` [Compound 9, Diethyl 2,2′-((5Z,5′Z)-((methylenebis(4,1-phenylene))bis(methanylylidene))bis(2,4-dioxothiazolidin-3-yl-5-ylidene))diacetate], the inhibition at 10 µM in data set [1] (setting [4]) came out at 14.5 ± 4.1%; in data set [2], 19.9 ± 3.6%. For the same compound, the “% survival neurotoxicity @ 10 μM” value in data set [3] is recorded as 88.7 ± 4.1%.

As to `CCOC(=O)CN1C(=O)S/C(=C\c2ccc3c(c2)C(C)(C)c2cc(/C=C4\SC(=O)N(CC(=O)OCC)C4=O)ccc2-3)C1=O` [Compound 11, Diethyl 2,2′-((5Z,5′Z)-((9,9-dimethyl-9H-fluorene-2,7-diyl)bis(methanylylidene))bis(2,4-dioxothiazolidin-3-yl-5-ylidene))diacetate], the inhibition at 10 µM in data set [1] (setting [4]) worked out at 17.5 ± 4.5%; in data set [2], 33.1 ± 4.5%. In addition, the “% survival neurotoxicity @ 10 μM” value in data set [3] is on record as 85.8 ± 6.9%.

Consider `CCOC(=O)CN1C(=O)S/C(=C\c2ccc(-c3ccc(/C=C4\SC(=O)N(CC(=O)OCC)C4=O)s3)s2)C1=O` [Compound 12, Diethyl 2,2′-((5Z,5′Z)-([2,2′-bithiophene]-5,5′-diylbis(methanylylidene))bis(2,4-dioxothiazolidin-3-yl-5-ylidene))diacetate], for which the inhibition at 10 µM worked out at 7 ± 3.7% in data set [1] (setting [4]) and 9.2 ± 5% in data set [2]. In addition, the “% survival neurotoxicity @ 10 μM” value in data set [3] came to 90.2 ± 2.1%.

On to `O=C(O)CN1C(=O)S/C(=C\c2ccc(/C=C3\SC(=O)N(CC(=O)O)C3=O)cc2)C1=O` [Compound 13, 2,2′-((5Z,5′Z)-(1,4-Phenylenebis(methanylylidene))bis(2,4-dioxothiazolidin-3-yl-5-ylidene))diacetic acid], for which the inhibition at 10 µM in data set [1] (setting [4]) was found to be 16.1 ± 3.9%; in data set [2], 25.3 ± 4.2%. In addition, in data set [3], the “% survival neurotoxicity @ 10 μM” value came to 82.3 ± 2.9%.

As to `O=C(O)CN1C(=O)S/C(=C\c2ccc(-c3ccc(/C=C4\SC(=O)N(CC(=O)O)C4=O)cc3)cc2)C1=O` [Compound 14, 2,2′-((5Z,5′Z)-([1,1′-Biphenyl]-4,4′-diylbis(methanylylidene))bis(2,4-dioxothiazolidin-3-yl-5-ylidene))diacetic acid], the inhibition at 10 µM in data set [1] (setting [4]) is 35.1 ± 1.9%; in data set [2], 27.1 ± 2.5%. The “% survival neurotoxicity @ 10 μM” value in data set [3] is on record as 89.0 ± 2.2%.

Consider `O=C(O)CN1C(=O)S/C(=C\c2ccc(Cc3ccc(/C=C4\SC(=O)N(CC(=O)O)C4=O)cc3)cc2)C1=O` [Compound 15, 2,2′-((5Z,5′Z)-((Methylenebis(4,1-phenylene))bis(methanylylidene))bis(2,4-dioxothiazolidin-3-yl-5-ylidene))diacetic acid], for which the inhibition at 10 µM in data set [1] (setting [4]) was 26.2 ± 1.9%; in data set [2] it was 3.8 ± 5.2%. In addition, the “% survival neurotoxicity @ 10 μM” value in data set [3] worked out at 90.9 ± 1.5%.

For `CC1=CC2Cc3nc4cc(Cl)ccc4c(NCCCCCCCNc4c5c(nc6ccccc46)CCCC5)c3C(C1)C2` (centres unmarked) [HUP7TH, reference compound], the “% inhibition Aβ42 aggregation @ 10 μM” value in data set [1] (intact E. coli cells, compound 10 μM, mean ± SEM of four independent experiments) was 77.6 ± 1.5%. In data set [2], the “% inhibition Tau aggregation @ 10 μM” value is given as 69.5 ± 1.6%.

Take `CC1=CC2Cc3nc4cc(Cl)ccc4c(N)c3C(C1)C2` (centres unmarked) [Huprine Y, huprine Y, reference compound]: in data set [1] (read-out: % inhibition Aβ42 aggregation @ 10 μM), the inhibition at 10 µM was found to be 4.6 ± 2.3%.

Consider `O=C(O)c1cc(O)c2c(c1)C(=O)c1cccc(O)c1C2=O` [Rhein, rhein, reference compound], for which the inhibition at 10 µM in data set [2] came to 39.2 ± 2.1%.
